Results: US10961228B2, “JAK1 selective inhibitors” (AstraZeneca AB, priority 2017, dated 2021)
pIC50: −log10 of the molar value.

Legend:
[1] = target: recombinant JAK2 (amino acids 831-1132) (Homo sapiens (Human), UniProt O60674); test: Enzyme inhibition studies, JAK2 (5 mM ATP, Caliper); format: biochemical
Method: (§1) JAK enzyme was expressed as N-terminal GST fusion in insect cells and purified by glutathione-affinity and size-exclusion chromatographies. Enzymes were assayed at their approximated high end of physiological ATP concentration of 5 mM, in the presence of inhibitor dosed at 30, 3, 0.3, 0.03, 0.003 and 0 μM final test concentrations.
(§2) Phosphorylated and unphosphotylated peptides were separated and quantified by a Caliper LC3000 system (Caliper Life Sciences, MA) for calculating percent inhibition.

[2] = target: recombinant JAK1 (amino acids 866-1154) (Homo sapiens (Human), UniProt P23458); test: Enzyme inhibition studies, JAK1 (5 mM ATP, Caliper); format: biochemical
recombinant JAK1 (amino acids 866-1154), sequence (P23458 866-1154): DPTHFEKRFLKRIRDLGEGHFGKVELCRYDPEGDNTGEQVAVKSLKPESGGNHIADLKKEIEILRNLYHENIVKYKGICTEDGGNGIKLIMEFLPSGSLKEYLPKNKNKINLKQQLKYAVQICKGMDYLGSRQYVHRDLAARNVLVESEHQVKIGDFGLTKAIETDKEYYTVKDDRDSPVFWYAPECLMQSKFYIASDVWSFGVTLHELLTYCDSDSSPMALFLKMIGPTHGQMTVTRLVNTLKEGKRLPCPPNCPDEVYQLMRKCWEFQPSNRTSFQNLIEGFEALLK
Method: as §1, §2

[3] = test system: IL-13 induced STAT6 promotor luciferase reporter in U937 monocytes (U937-STAT6-Luc); test: Cellular interleukin (IL-13) induced JAK-STAT6-luciferase assay (pSTAT6); format: cell-based; conditions: Homo sapiens, U-937; IL-13 induced STAT6-luciferase, U937-STAT6-Luc cells
Method: Cells were harvested by centrifugation at 250 g for 5 min and resuspended in Assay buffer (20 mM HEPES, 1×HBSS and 0.1% BSA) to 1000 cells pr μl. For stimulation of cells was used interleukin (IL-13) also dissolved in Assay buffer to […]. […] Test and control compounds were applied to assay plates (low vol white 384-well plates) in serial dilutions from 10 mM to 0.5 nM at 5 nl pr well in DMSO.
To each well was added 4 μl cells and 4 μl interleukin (IL-13) and the plates were sealed and incubated at 37° C. for 4½ h and then at room temperature for 30 min. The assay was developed by addition of 4 μl pr well of SteadyGlo (Promega) and after […] the plates were read at an Envision plate reader with luminescence filter.

[4] = target: recombinant JAK3 (amino acids 781-1124) (Homo sapiens (Human), UniProt P52333); test: Enzyme inhibition studies, JAK3 (5 mM ATP, Caliper); format: biochemical
recombinant JAK3 (amino acids 781-1124), sequence (P52333 781-1124): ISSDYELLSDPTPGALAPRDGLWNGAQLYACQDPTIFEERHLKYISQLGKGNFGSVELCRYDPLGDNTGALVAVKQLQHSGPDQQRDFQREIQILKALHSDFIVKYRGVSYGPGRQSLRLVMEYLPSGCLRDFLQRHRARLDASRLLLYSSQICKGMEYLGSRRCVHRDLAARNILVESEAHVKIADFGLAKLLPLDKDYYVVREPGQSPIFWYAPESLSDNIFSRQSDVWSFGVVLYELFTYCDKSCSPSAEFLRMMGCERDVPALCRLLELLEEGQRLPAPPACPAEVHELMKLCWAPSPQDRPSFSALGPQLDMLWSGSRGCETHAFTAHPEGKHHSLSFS
Method: as §1, §2

recombinant JAK2 (amino acids 831-1132), sequence (O60674 831-1132): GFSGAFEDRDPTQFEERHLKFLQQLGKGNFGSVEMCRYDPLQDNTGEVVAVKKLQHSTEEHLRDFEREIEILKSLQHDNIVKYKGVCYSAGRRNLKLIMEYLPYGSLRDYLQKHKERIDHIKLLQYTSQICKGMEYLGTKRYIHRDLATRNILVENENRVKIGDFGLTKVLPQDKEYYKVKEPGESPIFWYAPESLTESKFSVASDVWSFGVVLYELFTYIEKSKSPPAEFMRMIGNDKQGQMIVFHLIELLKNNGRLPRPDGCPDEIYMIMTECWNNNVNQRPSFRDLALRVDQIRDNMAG

pIC50 [1]	pIC50 [2]	pIC50 [3]	pIC50 [4]	Compound
6.04	> 7.52	7.59	< 4.52	Cc1cnc(Nc2cccc(S(C)(=O)=O)c2F)nc1-c1c[nH]c2c(NC(=O)[C@@H](COCc3ccccc3)N3CCN(C)CC3)cccc12 [Example 64, (R)-3-(benzyloxy)-N-(3-(2-((2-fluoro-3-(methylsulfonyl)phenyl)amino)-5-methylpyrimidin-4-yl)-1H-indol-7-yl)-2-(4-methylpiperazin-1-yl)propanamide]
5.59	> 8.52	7.54	< 4.52	COC[C@H](C(=O)Nc1cccc2c(-c3nc(Nc4cccc(S(C)(=O)=O)c4F)ncc3C)c[nH]c12)N1C[C@H](C)N(C)[C@@H](C)C1 [Example 22, (R)-N-(3-(2-((2-fluoro-3-(methylsulfonyl)phenyl)amino)-5-methylpyrimidin-4-yl)-1H-indol-7-yl)-3-methoxy-2-((3S,5S)-3,4,5-trimethylpiperazin-1-yl)propanamide]
5.30	8.29	7.54	< 4.52	C[C@H](C(=O)Nc1cccc2c(-c3nc(Nc4cccc(S(C)(=O)=O)c4F)ncc3Cl)c[nH]c12)N1CCN(C)CC1 [Example 5]
< 4.52	5.48	< 5.20	< 4.52	COC[C@@H](C(=O)Nc1cccc2c(-c3nc(Nc4cccc(S(C)(=O)=O)c4F)ncc3F)c[nH]c12)N1C[C@H](C)N(C)[C@@H](C)C1 [Example 40]
< 4.52	6.02	5.52	< 4.52	COC[C@@H](C(=O)Nc1cccc2c(-c3nc(Nc4cccc(S(C)(=O)=O)c4F)ncc3F)c[nH]c12)N1CCCN(C)CC1 [Example 44, (S)-N-(3-(5-fluoro-2-((2-fluoro-3-(methylsulfonyl)phenyl)amino)pyrimidin-4-yl)-1H-indol-7-yl)-3-methoxy-2-(4-methyl-1,4-diazepan-1-yl)propanamide]
4.58	7.65	7.01	< 4.52	CC[C@@H](C(=O)Nc1cccc2c(-c3nc(Nc4cccc(S(C)(=O)=O)c4F)ncc3C)c[nH]c12)N1CCN(C)CC1 [Example 13, (S)-N-(3-(2-((2-fluoro-3-(methylsulfonyl)phenyl)amino)-5-methylpyrimidin-4-yl)-1H-indol-7-yl)-2-(4-methylpiperazin-1-yl)butanamide]
6.22	> 8.52	7.44	< 4.52	COC[C@H](C(=O)Nc1cccc2c(-c3nc(Nc4cccc(S(C)(=O)=O)c4F)ncc3C)c[nH]c12)N1CCCN(C)CC1 [Example 42, (R)-N-(3-(2-((2-fluoro-3-(methylsulfonyl)phenyl)amino)-5-methylpyrimidin-4-yl)-1H-indol-7-yl)-3-methoxy-2-(4-methyl-1,4-diazepan-1-yl) propanamide]
6.21	> 8.52	7.62	< 4.52	CC[C@H](C(=O)Nc1cccc2c(-c3nc(Nc4cccc(S(C)(=O)=O)c4F)ncc3C)c[nH]c12)N1CCN(C)CC1C (stereo in doubt) [Example 51, (R)-2-((R)-2,4-dimethylpiperazin-1-yl)-N-(3-(2-((2-fluoro-3-(methylsulfonyl)phenyl)amino)-5-methylpyrimidin-4-yl)-1H-indol-7-yl)butanamide]
< 4.52	6.01	5.65	< 4.52	COC[C@@H](C(=O)Nc1cccc2c(-c3nc(Nc4cccc(S(C)(=O)=O)c4F)ncc3C)c[nH]c12)N1C[C@H](C)N(C)[C@@H](C)C1 [Example 21, (S)-N-(3-(2-((2-fluoro-3-(methylsulfonyl)phenyl)amino)-5-methylpyrimidin-4-yl)-1H-indol-7-yl)-3-methoxy-2-((3S,5S)-3,4,5-trimethylpiperazin-1-yl)propanamide]
< 4.52	6.39	5.89	< 4.52	CC[C@@H](C(=O)Nc1cccc2c(-c3nc(Nc4cccc(S(C)(=O)=O)c4F)ncc3F)c[nH]c12)N1CCCN(C)CC1 [Example 18]
< 4.52	5.95	< 5.31	< 4.52	C[C@H]1CN([C@@H](C)C(=O)Nc2cccc3c(-c4nc(Nc5cccc(S(C)(=O)=O)c5F)ncc4F)c[nH]c23)C[C@H](C)N1 [Example 12, (S)-2-((3S,5S)-3,5-dimethylpiperazin-1-yl)-N-(3-(5-fluoro-2-((2-fluoro-3-(methylsulfonyl)phenyl)amino)pyrimidin-4-yl)-1H-indol-7-yl)propanamide]
5.18	7.64	7.20	< 4.52	Cc1cnc(Nc2cccc(S(C)(=O)=O)c2F)nc1-c1c[nH]c2c(NC(=O)[C@H](C)N3CCNCC3)cccc12 [Example 25, (S)-N-(3-(2-((2-fluoro-3-(methylsulfonyl)phenyl)amino)-5-methylpyrimidin-4-yl)-1H-indol-7-yl)-2-(piperazin-1-yl)propanamide]
< 4.52	7.24	6.76	< 4.52	Cc1cnc(Nc2cccc(S(C)(=O)=O)c2F)nc1-c1c[nH]c2c(NC(=O)[C@H](C)N3CCN(C)CC3)cccc12 [Example 6, (S)-N-(3-(2-((2-fluoro-3-(methylsulfonyl)phenyl)amino)-5-methylpyrimidin-4-yl)-1H-indol-7-yl)-2-(4-methylpiperazin-1-yl)propanamide]
5.68	> 8.52	7.32	< 4.52	CC[C@H](C(=O)Nc1cccc2c(-c3nc(Nc4cccc(S(C)(=O)=O)c4F)ncc3F)c[nH]c12)N1CCN(C)CC1C (stereo in doubt) [Example 53, (R)-2-((R)-2,4-dimethylpiperazin-1-yl)-N-(3-(5-fluoro-2-((2-fluoro-3-(methylsulfonyl)phenyl)amino)pyrimidin-4-yl)-1H-indol-7-yl)butanamide]
4.68	7.40	6.45	< 4.52	Cc1cnc(Nc2cccc(S(C)(=O)=O)c2F)nc1-c1c[nH]c2c(NC(=O)[C@H](C)N3C[C@H](C)N[C@@H](C)C3)cccc12 [Example 10, (S)-2-((3S,5S)-3,5-dimethylpiperazin-1-yl)-N-(3-(2-((2-fluoro-3-(methylsulfonyl)phenyl)amino)-5-methylpyrimidin-4-yl)-1H-indol-7-yl)propanamide]
< 4.52	6.46	5.97	< 4.52	CC[C@@H](C(=O)Nc1cccc2c(-c3nc(Nc4cccc(S(C)(=O)=O)c4F)ncc3F)c[nH]c12)N1CCN(C)CC1C (stereo in doubt) [Example 52, (S)-2-((R)-2,4-dimethylpiperazin-1-yl)-N-(3-(5-fluoro-2-((2-fluoro-3-(methylsulfonyl)phenyl)amino)pyrimidin-4-yl)-1H-indol-7-yl)butanamide]
5.32	8.40	7.24	< 4.52	COC[C@H](C(=O)Nc1cccc2c(-c3nc(Nc4cccc(S(C)(=O)=O)c4F)ncc3F)c[nH]c12)N1C[C@H](C)N(C)[C@@H](C)C1 [Example 41, (R)-N-(3-(5-fluoro-2-((2-fluoro-3-(methylsulfonyl)phenyl)amino)pyrimidin-4-yl)-1H-indol-7-yl)-3-methoxy-2-((3S,5S)-3,4,5-trimethylpiperazin-1-yl)propanamide]
5.94	7.85	7.14	< 4.52	CC[C@@H](C(=O)Nc1cccc2c(-c3nc(Nc4cccc(S(C)(=O)=O)c4F)ncc3F)c[nH]c12)N1C[C@@H](C)N[C@H](C)C1 [Example 30, (S)-2-((3R,5R)-3,5-dimethylpiperazin-1-yl)-N-(3-(5-fluoro-2-((2-fluoro-3-(methylsulfonyl)phenyl)amino)pyrimidin-4-yl)-1H-indol-7-yl)butanamide]
4.84	8.18	7.24	< 4.52	Cc1cnc(Nc2cccc(S(C)(=O)=O)c2F)nc1-c1c[nH]c2c(NC(=O)[C@@H](C)N3C[C@H](C)N(C)[C@@H](C)C3)cccc12 [Example 7, (R)-N-(3-(2-((2-fluoro-3-(methylsulfonyl)phenyl)amino)-5-methylpyrimidin-4-yl)-1H-indol-7-yl)-2-((3S,5S)-3,4,5-trimethylpiperazin-1-yl)propanamide]
< 4.52	7.15	6.78	< 4.52	CC[C@@H](C(=O)Nc1cccc2c(-c3nc(Nc4cccc(S(C)(=O)=O)c4F)ncc3C)c[nH]c12)N1CCCN(C)CC1 [Example 36, (S)-N-(3-(2-((2-fluoro-3-(methylsulfonyl)phenyl)amino)-5-methylpyrimidin-4-yl)-1H-indol-7-yl)-2-(4-methyl-1,4-diazepan-1-yl)butanamide]
